From patent US5736565A, “Therapeutic compounds suitable for the treatment of diseases connected with glutathione deficiency, process for their preparation, and pharmaceutical compositions containing same” (Prospa B.V., priority 1992, dated 1998)
“Also recorded” adds a separate entry of the source. Where two headings read alike, the source gives them in different places. Peptide text beside a SMILES is read from it.

Legend:
[1] = test system: hepatocytes; assay: Tests in vitro: vitality of isolated rat hepatocytes; format: cell-based; details: for viability at 250 µM / viability at 500 µM / viability at 1000 µM / viability at 2500 µM / viability at 5000 µM: Rattus norvegicus, Hepatocyte, read-out: Cells vitality; for viability at 1000 µM: DEM + 1.0 mM; for viability at 5000 µM: DEM + 5.0 mM
Protocol: The experimental model envisages the isolation of hepatic parenchymal cells of rats following perfusion, with collagenase, of the isolated organ. Prior to each test, hepatocytes vitality was quantified by Tripan Blue […]. Only the cells with a vitality greater than 90% were utilized. Hepatocytes were resuspended, at a concentration of 10^6 cells/ml, in a saline medium (Krebs Heinseleit) at ph 7.4, and then placed into rotating flasks in the presence of O2 (95%) and CO2 (5%), at 37° C. Cells keep vital for 5-6 hours at least.
[…] The cells were then washed for 30 min. and incubated with various concentrations of the test substance (from 0.25 to 5 mM).
By this experimental model it is possible to test the effect of the substance by evaluating the hepatic functionality determined by measurements of the vitality (Tables Nos. 3, 4, and 5) and of glutathione content (Tables 6, 7, and 8).
In the Tables 3-8 herein below reported, the controls are represented by normal hepatocytes, not treated either with DEM or with compound (I).

[2] = test system: hepatic GSH; assay: Test No. 1: protection from ethanol acute administration, hepatic GSH content; format: in vivo, male albino Wistar rats; set-up: GSH Content: unit not given beside the values; details: for GSH Content: liver, ethanol 3 g/kg i.p.
Protocol: Protection from ethanol acute administration […] Male albino Wistar rats weighing between 180 and 230 g were used. All animals were fasted for 24 hours prior to administration of isotonic solution, ethanol or ethanol combined with the test substances. As concerns the test substances, rats were intraperitoneally (i.p.) injected with compound of formula I (R=CH3) at doses of 10, 30, and 50 mg/kg and, for purposes of comparison, with the single constituents of compound (I) (R=CH3), […] (O-PRO) and L-cysteine (CIS), both at a 50 mg/kg dose. One hour after administration of the test substance, ethanol was injected i.p. at the dose of 3 g/kg. Thirty minutes later, the animals were sacrificed by decapitation and their liver was excised. […] Orwar et al., J. Chromatrogr., 556, 39-55 (1991).

[3] = test system: urethane-induced tumours of the lungs; assay: Urethane-induced tumours of the lungs in albino Swiss mice; format: in vivo
Protocol: Male albino adult Swiss mice (20-25 g) were used. All animals were inoculated i.p. with urethane. The animals were treated with PSC (600 mg/kg) 15 days prior to and after inoculation. Once the treatment was completed, the animals were sacrificed, their lungs excised and subjected to necrohistologic examination.

[4] = test system: serum antibodies versus ram erythrocytes; assay: Immunization tests versus ram erythrocytes in rat immunodepressed by cyclophosphamide (CTX); format: in vivo, Sprague-Dawley rats; details: for serum antibodies level (agglutination, Days from immunization): 600 mg/kg i.p. + CTX
Protocol: (§1) Sprague-Dawley rats (Charles River, Calco (CO)), aged 10 weeks (young adults) and 24 months (old), were stabled under standard conditions (24°±1° C., 12 h light/dark cycle, free access to food and water). Handlings were made in such a way as to avoid stressful stimuli.
(§2) The animals were stabled in groups of 6 per cage and treated for 2 weeks (15 days) with a PSC daily dose of 600 mg/kg by intraperitoneal route (i.p.).
Immunization tests versus ram erythrocytes in Sprague-Dawley rat immunodepressed by cyclophosphamide (CTX)
0.3 Milliliters of ram erythrocytes (3%) in 0.9% sodium chloride solution were injected to Sprague-Dawley rats, both young (aged 10 weeks, weighing 150-200 g) and old (aged 24 months). A second injection was made on the 21st day after the first one. The rats were treated with PSC (600 mg/kg i.p.). Treatment started 3 days before immunization and continued until the 40th day of experiment. Cyclophosphamide (CTX) (150 mg/kg/die) was injected i.p. on the 3rd, 4th, and 5th day after immunization with erythrocytes.
The animals were subdivided (6 animals each group) into the following experimental groups:
1) Non-immunized controls (CTRL);
2) Immunized controls (CTRL);
4) Immunized +CTX+PSC (600 mg/kg i.p.).
The determination of serum antibodies levels was carried out by agglutination reaction: the serum in 0.9% sodium chloride solution was diluted from 1:2 to 1:1024 and ram erythrocytes at a concentration of 5×10^8 /ml were added. The determination of antibodies was carried out 2 hrs after incubation at 37° C. Each sample was assayed twice (Tables 11 and 12).

[5] = test system: interleukin-2 (IL-2); assay: Interleukin-2 (IL-2) production following interleukin-1 (IL-1) i.p. injection in young and old rats; format: in vivo, Sprague-Dawley rats; details: i.p. treated groups
Protocol: as §1, §2
With a view to evaluating a further aspect of the immunological activity in PSC-treated (600 mg/kg) animals, according to the aforementioned scheme, an investigation was carried out on interleukin-2 (IL-2) response to the injection of IL-1 that, as known, stimulates IL-2 production from lymphocytes.
Once the treatment was completed, each rat was administered IL-1 (0.1 mg/kg, i.p.). One hour after injection, the animals were killed by decapitation, the blood was collected and centrifuged, and the plasma maintained at -20° C. until IL-2 dosing.
The evaluation of IL-2 production was based on an immunological assay, utilizing a specific antibody produced in heterologous species against rat IL-2. Samples were assayed twice.
The controls are rats treated only with IL-1.

[6] = 600 mg/kg i.p., 30 days' treatment, 15 days after urethane i.p.

CC(=O)SC[C@H](NC(=O)[C@@H]1CCC(=O)N1)C(=O)O [PSC, 2-(S)-(2-pyrrolidone-5-(S)-carbonyl amido)-3-acetylmercapto propionic acid] (HELM PEPTIDE1{[Glp].C}|PEPTIDE2{[ac]}$PEPTIDE1,PEPTIDE2,2:R3-1:R2$$$V2.0)
viability at 250 µM ([1]; 0 h, DEM + 0.25 mM, 0 time (Table 4)): 95% | viability at 500 µM ([1]; 0 h, DEM + 0.50 mM, 0 time (Table 4)): 95% | viability at 1000 µM ([1]; 0 h, 0 time (Table 5)): 96% | viability at 2500 µM ([1]; 0 h, DEM + 2.5 mM, 0 time (Table 5)): 96% | viability at 5000 µM ([1]; 0 h, 0 time (Table 5)): 96% | viability at 250 µM ([1]; 0 h, no DEM, 0.25 mM, 0 time): 100% | viability at 500 µM ([1]; 0 h, no DEM, 0.50 mM, 0 time): 100% | viability at 2500 µM ([1]; 0 h, no DEM, 2.5 mM, 0 time): 100% | viability at 250 µM ([1]; 0.5 h, DEM + 0.25 mM, 30 min (Table 4)): 90% | viability at 500 µM ([1]; 0.5 h, DEM + 0.50 mM, 30 min (Table 4)): 88% | viability at 1000 µM ([1]; 0.5 h, 30 min (Table 5)): 92% | viability at 2500 µM ([1]; 0.5 h, DEM + 2.5 mM, 30 min (Table 5)): 89% | viability at 5000 µM ([1]; 0.5 h, 30 min (Table 5)): 88% | viability at 250 µM ([1]; 0.5 h, no DEM, 0.25 mM, 30 min): 101% | viability at 500 µM ([1]; 0.5 h, no DEM, 0.50 mM, 30 min): 101% | viability at 2500 µM ([1]; 0.5 h, no DEM, 2.5 mM, 30 min): 94% | viability at 250 µM ([1]; 1 h, DEM + 0.25 mM, 1 hr (Table 4)): 87% | viability at 500 µM ([1]; 1 h, DEM + 0.50 mM, 1 hr (Table 4)): 85% | viability at 1000 µM ([1]; 1 h, 1 hr (Table 5)): 90% | viability at 2500 µM ([1]; 1 h, DEM + 2.5 mM, 1 hr (Table 5)): 84% | viability at 5000 µM ([1]; 1 h, 1 hr (Table 5)): 84% | viability at 250 µM ([1]; 1 h, no DEM, 0.25 mM, 1 hr): 98% | viability at 500 µM ([1]; 1 h, no DEM, 0.50 mM, 1 hr): 100% | viability at 2500 µM ([1]; 1 h, no DEM, 2.5 mM, 1 hr): 95% | viability at 250 µM ([1]; 2 h, DEM + 0.25 mM, 2 hrs (Table 4)): 86% | viability at 500 µM ([1]; 2 h, DEM + 0.50 mM, 2 hrs (Table 4)): 84% | viability at 1000 µM ([1]; 2 h, 2 hrs (Table 5)): 89% | viability at 2500 µM ([1]; 2 h, DEM + 2.5 mM, 2 hrs (Table 5)): 83.5% | viability at 5000 µM ([1]; 2 h, 2 hrs (Table 5)): 82% | viability at 250 µM ([1]; 2 h, no DEM, 0.25 mM, 2 hrs): 100% | viability at 500 µM ([1]; 2 h, no DEM, 0.50 mM, 2 hrs): 101% | viability at 2500 µM ([1]; 2 h, no DEM, 2.5 mM, 2 hrs): 95% | viability at 250 µM ([1]; 4 h, DEM + 0.25 mM, 4 hrs (Table 4)): 87% | viability at 500 µM ([1]; 4 h, DEM + 0.50 mM, 4 hrs (Table 4)): 85% | viability at 1000 µM ([1]; 4 h, 4 hrs (Table 5)): 88% | viability at 2500 µM ([1]; 4 h, DEM + 2.5 mM, 4 hrs (Table 5)): 82% | viability at 5000 µM ([1]; 4 h, 4 hrs (Table 5)): 80% | viability at 250 µM ([1]; 4 h, no DEM, 0.25 mM, 4 hrs): 116% | viability at 500 µM ([1]; 4 h, no DEM, 0.50 mM, 4 hrs): 114% | viability at 2500 µM ([1]; 4 h, no DEM, 2.5 mM, 4 hrs): 104% | cellular suffering (in words) ([1]; hepatocytes treated with DEM then test substance): a cellular suffering (cellular dilatation without appearance of vesicles) was at first detected, which disappeared after few tens of minutes | cellular toxicity (in words) ([1]; in vitro, up to 5 mM): does not cause cellular toxicity and, at least in vitro, is very well tolerated | hepatic glutathione formation (in words) ([2]; ethanol-treated rats): enhances hepatic glutathione formation nearly to physiological levels | GSH Content ([2]; test substance 10 mg/kg i.p.): 3.6 ± 0.3 | GSH Content ([2]; test substance 30 mg/kg i.p.): 4.3 ± 0.6 | GSH Content ([2]; test substance 50 mg/kg): 5.8 ± 0.4 | Mice with neoplasms, % [3, 6]: 50% | Mice with neoplasms/group [3, 6]: 3/6 | development of tumours of the lungs (in words) ([3]; chronic treatment): significantly slowed down the development of tumours of the lungs; also recorded: its action seems most potent on the tumours directly induced by contact with a chemical carcinogen, such as urethane | restoring immunological functionality (in words) ([4]; CTX-immunodepressed old rat): effective in restoring a correct immunological functionality | antibodies levels (in words) ([4]; intraperitoneal, young and old rats): causes a considerable increase in antibodies levels both in young (Table 11) and old (Table 12) rats | serum antibodies level (agglutination, Days from immunization) ([4]; old rats, day 12): 2 | serum antibodies level (agglutination, Days from immunization) ([4]; old rats, day 20): 8 | serum antibodies level (agglutination, Days from immunization) ([4]; old rats, day 29): 32 | serum antibodies level (agglutination, Days from immunization) ([4]; old rats, day 40): 64 | serum antibodies level (agglutination, Days from immunization) ([4]; young rats, day 12): 2 | serum antibodies level (agglutination, Days from immunization) ([4]; young rats, day 20): 4 | serum antibodies level (agglutination, Days from immunization) ([4]; young rats, day 29): 20 | serum antibodies level (agglutination, Days from immunization) ([4]; young rats, day 40): 20 | IL-2 levels (in words) [5]: significant increases were detected in the groups treated i.p. with PSC
